Experimental data reported in BindingDB's records for doi:10.1124/jpet.105.083964 (Taisho Pharmaceutical, 2005).

Key:
Caspase-3 = Caspase-3 (Homo sapiens, UniProt P42574)
[1] = target: Gamma-aminobutyric acid receptor subunit alpha-1 (Rattus norvegicus, UniProt P62813)
[2] = target: Type-2 angiotensin II receptor (Bos taurus, UniProt G5E6F7)
[3] = target: Prostaglandin G/H synthase 1 (Rattus norvegicus, UniProt Q63921)
[4] = target: Tumor necrosis factor receptor (Homo sapiens)
[5] = target: Phosphodiesterase 5A (Homo sapiens)
[6] = target: Muscarinic acetylcholine receptor M2 (Rattus norvegicus, UniProt P10980)
D(2) dopamine receptor = D(2) dopamine receptor (Rattus norvegicus, UniProt P61169)
[7] = target: L-type calcium channel (Rattus norvegicus)
Mu-type opioid receptor = Mu-type opioid receptor (Rattus norvegicus, UniProt P33535)
Mu-type opioid receptor, sequence (P33535 whole entry): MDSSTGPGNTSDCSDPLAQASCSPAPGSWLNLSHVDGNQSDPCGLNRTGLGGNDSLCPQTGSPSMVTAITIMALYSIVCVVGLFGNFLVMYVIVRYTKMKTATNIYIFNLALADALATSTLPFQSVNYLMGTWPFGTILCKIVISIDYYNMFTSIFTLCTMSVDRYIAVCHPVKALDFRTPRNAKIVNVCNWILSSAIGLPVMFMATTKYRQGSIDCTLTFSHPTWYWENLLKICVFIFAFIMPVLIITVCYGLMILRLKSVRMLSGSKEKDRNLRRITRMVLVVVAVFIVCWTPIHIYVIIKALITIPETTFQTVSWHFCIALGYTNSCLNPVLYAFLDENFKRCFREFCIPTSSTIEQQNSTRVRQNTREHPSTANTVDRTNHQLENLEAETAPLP

[8] = target: Corticotropin-releasing factor receptor 1 (Rattus norvegicus, UniProt P35353)
Corticotropin-releasing factor receptor 1, sequence (P35353 whole entry): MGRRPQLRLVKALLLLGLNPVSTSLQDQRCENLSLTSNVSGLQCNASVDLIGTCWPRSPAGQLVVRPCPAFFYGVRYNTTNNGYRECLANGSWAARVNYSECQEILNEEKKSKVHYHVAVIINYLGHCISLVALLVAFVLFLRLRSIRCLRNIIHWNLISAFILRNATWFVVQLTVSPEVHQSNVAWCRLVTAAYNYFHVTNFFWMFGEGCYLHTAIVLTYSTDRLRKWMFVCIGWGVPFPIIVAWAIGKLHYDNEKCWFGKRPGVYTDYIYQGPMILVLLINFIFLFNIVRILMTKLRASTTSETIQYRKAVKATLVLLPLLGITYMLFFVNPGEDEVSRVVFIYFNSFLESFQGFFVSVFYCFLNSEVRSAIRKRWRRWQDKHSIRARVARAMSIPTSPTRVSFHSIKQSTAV

D(1A) dopamine receptor = D(1A) dopamine receptor (Rattus norvegicus, UniProt P18901)
Histamine H1 receptor = Histamine H1 receptor (Cavia porcellus, UniProt P31389)
[9] = target: Gamma-aminobutyric acid (GABA) B receptor 1 (Rattus norvegicus, UniProt Q6MFX8)
Adenosine receptor A2a = Adenosine receptor A2a (Rattus norvegicus, UniProt P30543)
Phosphodiesterase 3a = Phosphodiesterase 3a (Cavia porcellus, UniProt C7DXW3)
[10] = target: PDGF receptor (Mus musculus)
[11] = target: Insulin receptor (Rattus norvegicus) (UniProt P15127)
Insulin receptor (Rattus norvegicus), sequence (P15127 whole entry, looked up): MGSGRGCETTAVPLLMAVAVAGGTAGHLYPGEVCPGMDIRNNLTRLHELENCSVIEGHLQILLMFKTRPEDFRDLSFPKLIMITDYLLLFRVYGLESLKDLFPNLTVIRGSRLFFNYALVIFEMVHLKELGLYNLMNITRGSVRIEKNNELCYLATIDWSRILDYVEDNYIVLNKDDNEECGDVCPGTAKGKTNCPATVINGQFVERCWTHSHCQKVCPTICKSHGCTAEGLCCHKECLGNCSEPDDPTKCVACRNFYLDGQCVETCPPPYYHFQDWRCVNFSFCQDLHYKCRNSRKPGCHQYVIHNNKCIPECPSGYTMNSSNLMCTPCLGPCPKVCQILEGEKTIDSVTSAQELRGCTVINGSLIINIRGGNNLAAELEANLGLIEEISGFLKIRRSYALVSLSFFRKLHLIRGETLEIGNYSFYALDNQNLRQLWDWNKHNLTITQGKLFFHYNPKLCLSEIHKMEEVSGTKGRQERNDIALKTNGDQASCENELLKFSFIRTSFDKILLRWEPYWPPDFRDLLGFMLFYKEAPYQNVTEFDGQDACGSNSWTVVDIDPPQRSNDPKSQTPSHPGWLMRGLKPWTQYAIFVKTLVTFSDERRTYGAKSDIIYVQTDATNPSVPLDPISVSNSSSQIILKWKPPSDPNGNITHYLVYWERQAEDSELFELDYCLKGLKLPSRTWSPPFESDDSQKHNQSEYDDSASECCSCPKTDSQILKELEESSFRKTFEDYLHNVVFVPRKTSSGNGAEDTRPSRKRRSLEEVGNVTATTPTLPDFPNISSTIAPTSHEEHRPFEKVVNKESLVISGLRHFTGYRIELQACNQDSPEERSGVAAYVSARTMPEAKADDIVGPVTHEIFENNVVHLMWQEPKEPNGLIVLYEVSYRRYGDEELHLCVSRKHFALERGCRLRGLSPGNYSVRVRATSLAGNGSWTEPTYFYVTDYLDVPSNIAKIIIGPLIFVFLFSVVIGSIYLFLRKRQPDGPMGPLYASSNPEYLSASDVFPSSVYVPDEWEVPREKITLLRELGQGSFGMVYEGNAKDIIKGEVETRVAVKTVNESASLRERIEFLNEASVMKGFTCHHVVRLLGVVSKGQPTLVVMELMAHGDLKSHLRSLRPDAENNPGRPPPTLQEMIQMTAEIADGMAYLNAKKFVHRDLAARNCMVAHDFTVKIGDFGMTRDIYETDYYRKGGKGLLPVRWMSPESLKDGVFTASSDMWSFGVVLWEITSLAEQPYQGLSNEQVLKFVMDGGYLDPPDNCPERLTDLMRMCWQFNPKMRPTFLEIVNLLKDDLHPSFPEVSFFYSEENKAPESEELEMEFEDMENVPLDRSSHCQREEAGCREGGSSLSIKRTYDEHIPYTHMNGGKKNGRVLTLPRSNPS

Substance-P receptor = Substance-P receptor (Homo sapiens, UniProt P25103)
[12] = target: Prostaglandin G/H synthase 2 (Ovis aries, UniProt P79208)
Prostaglandin G/H synthase 2, sequence (P79208 whole entry): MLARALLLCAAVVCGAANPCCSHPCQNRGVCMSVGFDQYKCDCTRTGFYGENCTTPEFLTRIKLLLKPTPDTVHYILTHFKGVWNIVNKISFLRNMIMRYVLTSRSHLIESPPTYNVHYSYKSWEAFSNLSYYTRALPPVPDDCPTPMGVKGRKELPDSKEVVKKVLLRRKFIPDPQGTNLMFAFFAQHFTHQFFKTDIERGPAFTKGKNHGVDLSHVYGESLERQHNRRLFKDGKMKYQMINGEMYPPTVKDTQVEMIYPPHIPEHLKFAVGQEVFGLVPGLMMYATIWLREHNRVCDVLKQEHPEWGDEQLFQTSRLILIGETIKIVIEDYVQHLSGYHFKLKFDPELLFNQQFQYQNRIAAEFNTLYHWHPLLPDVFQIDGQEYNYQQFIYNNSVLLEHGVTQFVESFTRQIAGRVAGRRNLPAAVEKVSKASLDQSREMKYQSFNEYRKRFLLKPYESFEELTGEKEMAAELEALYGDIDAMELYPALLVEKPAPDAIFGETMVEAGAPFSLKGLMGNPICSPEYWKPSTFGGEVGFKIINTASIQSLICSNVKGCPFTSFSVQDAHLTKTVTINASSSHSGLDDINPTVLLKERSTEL

[13] = target: Vasoactive intestinal polypeptide receptor 1 (Homo sapiens, UniProt P32241)
[14] = target: 5-hydroxytryptamine receptor 1B (Rattus norvegicus, UniProt P28564)
[15] = target: Platelet-activating factor receptor (Oryctolagus cuniculus)
Adenosine receptor A1 = Adenosine receptor A1 (Rattus norvegicus, UniProt P25099)
[16] = target: Interleukin-1 receptor (Mus musculus)
[17] = target: Sigma non-opioid intracellular receptor 1 (Rattus norvegicus, UniProt Q9R0C9)
Sigma non-opioid intracellular receptor 1, sequence (Q9R0C9 whole entry): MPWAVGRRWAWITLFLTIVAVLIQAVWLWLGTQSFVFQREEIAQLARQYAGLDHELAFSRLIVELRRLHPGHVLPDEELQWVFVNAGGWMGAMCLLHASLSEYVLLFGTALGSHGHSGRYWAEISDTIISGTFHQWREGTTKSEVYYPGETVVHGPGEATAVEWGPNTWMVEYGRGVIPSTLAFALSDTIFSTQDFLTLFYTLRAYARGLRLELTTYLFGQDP

[18] = target: Type-1 angiotensin II receptor A (Rattus norvegicus, UniProt P25095)
[19] = target: Glutamate receptor ionotropic, NMDA 1 (Rattus norvegicus, UniProt P35439)
[20] = target: Beta-1 adrenergic receptor (Rattus norvegicus, UniProt P18090)
Beta-1 adrenergic receptor, sequence (P18090 whole entry): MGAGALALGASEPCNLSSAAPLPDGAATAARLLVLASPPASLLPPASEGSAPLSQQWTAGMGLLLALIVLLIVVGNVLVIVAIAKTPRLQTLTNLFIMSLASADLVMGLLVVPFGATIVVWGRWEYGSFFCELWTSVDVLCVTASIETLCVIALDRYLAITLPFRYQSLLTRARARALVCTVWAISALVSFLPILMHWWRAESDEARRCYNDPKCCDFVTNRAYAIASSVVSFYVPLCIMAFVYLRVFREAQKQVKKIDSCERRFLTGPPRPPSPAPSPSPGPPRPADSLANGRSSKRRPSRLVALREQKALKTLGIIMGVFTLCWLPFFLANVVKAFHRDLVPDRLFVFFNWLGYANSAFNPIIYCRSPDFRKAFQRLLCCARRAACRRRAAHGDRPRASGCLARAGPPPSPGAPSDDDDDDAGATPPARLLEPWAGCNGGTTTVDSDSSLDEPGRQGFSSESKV

B2 bradykinin receptor = B2 bradykinin receptor (Homo sapiens, UniProt P30411)
[21] = target: 5-hydroxytryptamine receptor 2A (Rattus norvegicus, UniProt P14842)
5-hydroxytryptamine receptor 2A, sequence (P14842 whole entry): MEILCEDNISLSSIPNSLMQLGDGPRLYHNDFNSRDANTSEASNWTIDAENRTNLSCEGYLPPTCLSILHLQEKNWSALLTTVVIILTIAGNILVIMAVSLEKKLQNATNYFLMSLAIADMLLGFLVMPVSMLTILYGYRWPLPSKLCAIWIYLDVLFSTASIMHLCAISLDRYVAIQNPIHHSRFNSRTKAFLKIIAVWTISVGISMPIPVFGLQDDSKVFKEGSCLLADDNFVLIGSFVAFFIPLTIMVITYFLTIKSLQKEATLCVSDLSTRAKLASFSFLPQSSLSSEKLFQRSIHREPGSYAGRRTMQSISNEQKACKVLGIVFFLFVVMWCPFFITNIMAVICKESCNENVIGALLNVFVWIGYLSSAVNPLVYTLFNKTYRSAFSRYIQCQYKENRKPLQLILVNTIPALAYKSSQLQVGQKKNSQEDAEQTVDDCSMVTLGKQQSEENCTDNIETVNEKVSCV

[22] = target: Dual specificity calcium/calmodulin-dependent 3',5'-cyclic nucleotide phosphodiesterase 1A (Bos taurus, UniProt P14100)
[23] = target: Neuronal acetylcholine receptor subunit alpha-9 (Rattus norvegicus, UniProt P43144)
Glucocorticoid receptor = Glucocorticoid receptor (Mus musculus, UniProt P06537)
Glucocorticoid receptor, sequence (P06537 as listed by the source): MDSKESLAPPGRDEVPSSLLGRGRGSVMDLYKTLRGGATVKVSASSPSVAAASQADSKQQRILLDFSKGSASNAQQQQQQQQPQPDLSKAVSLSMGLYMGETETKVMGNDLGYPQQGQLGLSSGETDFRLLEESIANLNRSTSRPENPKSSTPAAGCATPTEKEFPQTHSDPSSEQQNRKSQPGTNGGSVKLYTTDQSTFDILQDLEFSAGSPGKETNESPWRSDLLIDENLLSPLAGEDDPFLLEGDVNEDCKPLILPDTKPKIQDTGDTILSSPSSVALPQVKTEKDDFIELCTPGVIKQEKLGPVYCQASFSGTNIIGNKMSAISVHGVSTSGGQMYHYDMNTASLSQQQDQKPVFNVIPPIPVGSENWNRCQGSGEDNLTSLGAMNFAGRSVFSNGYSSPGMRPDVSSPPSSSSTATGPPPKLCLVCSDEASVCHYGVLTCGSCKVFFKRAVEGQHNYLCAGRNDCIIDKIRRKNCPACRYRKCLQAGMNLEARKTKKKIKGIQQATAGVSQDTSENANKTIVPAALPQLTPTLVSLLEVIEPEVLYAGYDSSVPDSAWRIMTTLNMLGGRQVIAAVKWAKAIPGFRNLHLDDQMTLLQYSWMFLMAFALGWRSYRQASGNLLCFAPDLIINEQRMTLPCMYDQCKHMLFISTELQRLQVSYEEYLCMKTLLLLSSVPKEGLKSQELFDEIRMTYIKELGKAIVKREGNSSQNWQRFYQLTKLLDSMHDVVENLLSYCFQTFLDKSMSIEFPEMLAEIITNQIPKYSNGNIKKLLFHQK

[24] = target: Cholecystokinin receptor type A (Homo sapiens) (UniProt P32238)
[25] = target: Angiotensin-converting enzyme (Homo sapiens, UniProt P12821)
[26] = target: Nitric oxide synthase, endothelial (Homo sapiens, UniProt P29474)
[27] = target: cAMP-specific 3',5'-cyclic phosphodiesterase 4D (Homo sapiens, UniProt Q08499)
[28] = target: Endothelin-1 receptor (Rattus norvegicus) (UniProt P26684)

Measured: Ki

Caspase-3, sequence (P42574 29-175 limits assumed): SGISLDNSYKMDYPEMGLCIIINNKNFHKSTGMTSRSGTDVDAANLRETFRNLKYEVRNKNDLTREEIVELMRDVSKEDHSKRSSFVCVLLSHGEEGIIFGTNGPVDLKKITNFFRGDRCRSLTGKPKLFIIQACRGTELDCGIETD
Caspase-3, sequence (P42574 176-277 limits assumed): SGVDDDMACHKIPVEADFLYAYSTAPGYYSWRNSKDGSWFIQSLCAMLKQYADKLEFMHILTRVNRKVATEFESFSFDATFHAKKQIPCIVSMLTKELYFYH

O/N=C/Nc1ccc(N2CCOCC2)c(Cl)c1 [N'-(3-Chloro-4-morpholinophenyl)-N-hydroxyformamidine]
> 10 µM: all assays above
